Where two headings read alike, the source gives them in different places.
Legend:
[1] = test system: Escherichia coli J53 (RP4); assay: Growth tests: adaptation (resistance development) to aminoglycoside antibiotic with or without BVDU; type: cell-based
Source text: Escherichia coli J53 was used as Gram-negative model organism in order to test the effectiveness of BVDU. This organism carries the naturally occurring plasmid RP4, on which resistances to Ampicillin, Tetracycline and Kanamycin are encoded.
The results are illustrated in FIGS. 1 and 2.

[2] = test system: E. coli J53 (RP4) strains; assay: Determination of minimal inhibitory concentrations (MIC) of Kanamycin or Amikacin on starter, adapted and BVDU-pretreated strains; type: cell-based, Escherichia coli; conditions: for MIC: Escherichia coli
Source text: In order to determine the minimal inhibitory concentrations (MIC), precultures were used initially for which antibiotic-free culture medium had been inoculated directly from frozen glycerine cultures. […] However even higher antibiotic concentrations still led to the growth of the inoculum. However, the growth inhibition prevented a larger cell density in the bacteria culture being reached.
In order to test the stability of the specific resistance features of the E. coli strains, the MIC determination was repeated. The already tested precultures were again absorbed for this purpose in antibiotic-free culture medium and tested for their Kanamycin resistance. The resistance spectra of the starter strain and of the strain adapted to 64 μg/ml remained unchanged. […] The results are illustrated in FIG. 4.
The results can be deduced from FIG. 6.
(§1) In order to determine the minimal inhibitory concentrations (MIC) of Kanamycin or Amikacin relative to aminoglycoside/BVDU-pretreated E coli J53 (RP4) strains, standard precultures were used which contained no additives in the culture medium (recovery phase). In addition, it was tested in comparative experiments to what extent the addition of BVDU to the antibiotic-free precultures changes the resistant spectrum of the strains.

Leidshmania donovanii = assay: Prevention of methotrexate resistance development in Leishmania by gradual increase in MTX concentration; type: cell-based
Method: Prevention of resistance development in Zooflagellates (Leishmania) by the simultaneous administration of the anti-recombinogenic 5-substituted nucleoside (E)-5-(2-bromovinyl)2′-deoxyuridines (BVDU) with methotrexate.
Methotrexate (MTX) resistant cells of Leidshmania donovanii were produced by gradual increase in the MTX concentrations of 5 to 10, of 10 to 50 and of 50 to 100 μm MTX. 5×10^6 cells/ml respectively were seeded in the growth medium. The cells were diluted again to 5×10^6 cells/ml for each new batch. The cells were then constantly subjected to the next higher MTX concentration when the cell division rate of the MTX-subjected cells had stabilised to the control level. […] The result of this test can be seen in a simplified version in FIGS. 9 and 10.

[3] = test system: aminoglycoside/BVDU-pretreated E coli J53 (RP4) strains; assay: BVDU conditioned growth inhibition after aminoglycoside/BVDU pretreatment; type: cell-based, Escherichia coli
Method: as §1
In comparison therewith, the growth without antibiotic in the additive-free preculture corresponded to that of the untreated E. coli strain. The results are illustrated in FIGS. 7 and 8.

[4] = 1 μg/ml BVDU added simultaneously with MTX

## NCC[C@H](O)C(=O)N[C@@H]1C[C@H](N)[C@@H](O[C@H]2O[C@H](CN)[C@@H](O)[C@H](O)[C@H]2O)[C@H](O)[C@H]1O[C@H]1O[C@H](CO)[C@@H](O)[C@H](N)[C@H]1O [Amikacin]
[1]; Amikacin 0.25 μg/ml alone, E coli J53 (RP4)
  adaptation, i.e. resistance development, to the antibiotic: slow adaptation, i.e. resistance development
[2]; strain which had become resistant to 0.25 μg/ml Amikacin, read-out: MIC of Amikacin
  MIC: 2 µg/mL
[2]; strain grown in the presence of 2 μg/ml BVDU (no resistance to 0.25 μg/ml Amikacin)
  Amikacin concentration from which growth inhibition was shown: 0.125 µg/mL
[2]; strain which had become resistant to 0.25 μg/ml Amikacin
  increase of Amikacin MIC relative to the starter strain: eight times increased

## CN(Cc1cnc2nc(N)nc(N)c2n1)c1ccc(C(=O)N[C@@H](CCC(=O)O)C(=O)O)cc1 [MTX, Methotrexate]
Leidshmania donovanii; MTX alone, steps 5 to 10, 10 to 50, 50 to 100 μm MTX
  passages until cell division rate stabilised to the control level: approximately three to four passages

## O=c1[nH]c(=O)n([C@H]2C[C@H](O)[C@@H](CO)O2)cc1/C=C/Br [BVDU, (E)-5-(2-bromovinyl)-2-deoxyuridines]
[1]; BVDU 1 μg/ml in presence of Kanamycin 64 μg/ml, E. coli J53 (RP4)
  effect on resistance development/adaptation to Kanamycin: inhibition of this resistance development/adaptation
[1]; BVDU 2 μg/ml in presence of Amikacin 0.25 μg/ml, E coli J53 (RP4)
  effect on adaptation to Amikacin: inhibition of this adaptation
[3]; BVDU 1 or 2 μg/ml in the preculture or/and 0.04–0.05 μg/ml in the MIC batches
  growth of aminoglycoside/BVDU-pretreated E. coli strains in the absence of the antibiotic: sustained restriction of the growth
[3]; no pretreatment
  effect of BVDU without pretreatment (antibiotic+BVDU): no effect
  toxicity of BVDU without pretreatment: not toxic
Leidshmania donovanii; [4]
  cell division rate relative to control level: never reached the control level
  resistance development to MTX treatment: no resistance to the treatment

## NC[C@H]1O[C@H](O[C@H]2[C@H](O)[C@@H](O[C@H]3O[C@H](CO)[C@@H](O)[C@H](N)[C@H]3O)[C@H](N)C[C@@H]2N)[C@H](O)[C@@H](O)[C@@H]1O [Kanamycin]
[2]; strain pretreated with 64 μg/ml Kanamycin + 1 μg/ml BVDU, repeated MIC determination, read-out: Kanamycin concentration from which growth of the inoculum was completely prevented (MIC)
  MIC: 32 µg/mL
[2]; strain which had become resistant to 64 μg/ml Kanamycin, read-out: MIC of Kanamycin
  MIC: 128 µg/mL
[2]; strain grown in the presence of 1 μg/ml BVDU (no resistance to 64 μg/ml Kanamycin), first MIC determination
  Kanamycin concentration from which growth inhibition was shown: 16 µg/mL
